The values below are quoted from earlier work in article PMC9321963 (Birth Defects Research, 2022).

Structures are written as SMILES.

One series has as its system pregnant rats. To be noted: ref Mey, Babiuk, Clugston, Zhang, & Greer, [2003]; cited from earlier work.
For a further series, the system named is rabbits. To be noted: ref Food and Drug Administration, Duvelisib Label, [2018]; cited from earlier work.
Another series deals with rats. To be noted: ref Food and Drug Administration, Duvelisib Label, [2018]; cited from earlier work.

On to `O=[N+]([O-])c1ccc(Oc2ccc(Cl)cc2Cl)cc1` [nitrofen, 2,4‐dichlorophenyl‐p‐nitrophenyl ether], for which the “anomalies in offspring after administration to pregnant rats” value (from here on “anomalies in offspring”) in the series with pregnant rats is reported as “congenital anomalies in the offspring, including CDH defects”.
Take `O=C(O)c1ccc(-c2ccccc2)cc1` [4‐biphenyl carboxylic acid]: the “anomalies in offspring” value in the series with pregnant rats was “congenital anomalies in the offspring, including CDH defects”.
Take `O=C(NCCCCCCCCNC(=O)C(Cl)Cl)C(Cl)Cl` [bisdiamine, N,N‐octamethylenebis (dichloroacetamide)]: the “anomalies in offspring” value with pregnant rats is on record as “congenital anomalies in the offspring, including CDH defects”.
For `C[C@H](Nc1ncnc2[nH]cnc12)c1cc2cccc(Cl)c2c(=O)n1-c1ccccc1` [Duvelisib], the developmental toxicity result with rabbits was “developmental toxicant causing fetal losses and malformations”; in the series with rats, “developmental toxicant causing fetal losses and malformations”.
